From ChEMBL document CHEMBL4699500, “Synthesis of metronidazole based thiazolidinone analogs as promising antiamoebic agents” (Bioorg Med Chem Lett, 2020)

Experiments:
Entamoeba histolytica = assay: Antimicrobial activity against Entamoeba histolytica HM1:MMS assessed as reduction in amoeba growth incubated for 72 hrs by microscopy analysis; type: functional, organism-based
HEK293 [1] = assay: Cytotoxicity against human HEK293 cells assessed as reduction in cell viability at 2.5 to 50 uM incubated for 48 hrs by MTT assay; type: cell-based; details: hek293, 48 h, dose 2.5-50 µM
HEK293 [2] = assay: Cytotoxicity against human HEK293 cells assessed as reduction in cell viability at 100 uM incubated for 48 hrs by MTT assay; type: cell-based; details: hek293, 48 h

| Structure (SMILES) | IC50 (Entamoeba histolytica) | Activity (HEK293 [1]) | Activity (HEK293 [2]) |
| --- | --- | --- | --- |
| Cc1ncc([N+](=O)[O-])n1CCOc1ccc(/C=C2\S/C(=N\c3ccccc3)N(Cc3ccccc3Cl)C2=O)cc1 | 2.32 µM | – | – |
| Cc1ncc([N+](=O)[O-])n1CCOc1ccc(/C=C2\S/C(=N\c3ccccc3)N(Cc3cccs3)C2=O)cc1 | 1.63 µM | Non-Toxic | Non-Toxic |
| Cc1ncc([N+](=O)[O-])n1CCOc1ccc(/C=C2\S/C(=N\c3ccccc3)N(Cc3ccco3)C2=O)cc1 | 0.64 µM | Non-Toxic | – |
| COc1ccc(CN2C(=O)/C(=C/c3ccc(OCCn4c([N+](=O)[O-])cnc4C)cc3)S/C2=N\c2ccccc2)cc1OC | 1.05 µM | Non-Toxic | – |
| CCCN1C(=O)/C(=C/c2ccc(OCCn3c([N+](=O)[O-])cnc3C)cc2)S/C1=N\c1ccccc1 | 3.62 µM | – | – |
| Cc1ncc([N+](=O)[O-])n1CCOc1ccc(/C=C2\S/C(=N\c3ccccc3)N(CCO)C2=O)cc1 | 0.18 µM | Non-Toxic | – |
| Cc1ncc([N+](=O)[O-])n1CCOc1ccc(/C=C2\S/C(=N\c3ccccc3)N(Cc3ccncc3)C2=O)cc1 | 0.37 µM | Non-Toxic | Non-Toxic |
| Cc1ncc([N+](=O)[O-])n1CCO [METRONIDAZOLE] | – | Non-Toxic | – |
| Cc1ncc([N+](=O)[O-])n1CCOc1ccc(/C=C2\S/C(=N\c3ccccc3)N(Cc3ccc(F)cc3)C2=O)cc1 | 2.84 µM | – | – |
| Cc1ncc([N+](=O)[O-])n1CCOc1ccc(/C=C2\S/C(=N\c3ccccc3)N(CC3CCCO3)C2=O)cc1 (stereo not drawn) | 3.1 µM | – | – |
| Cc1ncc([N+](=O)[O-])n1CCOc1ccc(/C=C2\S/C(=N\c3ccccc3)N(Cc3ccc(Cl)cc3Cl)C2=O)cc1 | 2.19 µM | – | – |
| Cc1ncc([N+](=O)[O-])n1CCOc1ccc(/C=C2\S/C(=N\c3ccccc3)N(CC(C)C)C2=O)cc1 | 3.95 µM | – | – |
| CCCCN1C(=O)/C(=C/c2ccc(OCCn3c([N+](=O)[O-])cnc3C)cc2)S/C1=N\c1ccccc1 | 4.97 µM | – | – |
| Cc1ncc([N+](=O)[O-])n1CCOc1ccc(/C=C2\S/C(=N\c3ccccc3)N(Cc3ccccc3)C2=O)cc1 | 1.65 µM | Non-Toxic | Non-Toxic |
